Measurements as given in PubChem BioAssay (NCI).
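Protocol summary: plate cells (96-well), add compound at 5 concentrations, incubate 48 h, interpolate endpoints linearly. TGI marks complete inhibition of growth.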

How the values were obtained:
Assay in all cases: NCI tumour cell line growth inhibition, 48 h
[1] = system: 786-0 renal
[2] = system: A549 NSCLC
[3] = system: ACHN renal
[4] = system: BT-549 breast
[5] = system: CAKI-1 renal
[6] = system: COLO 205 colon
[7] = system: DU-145 prostate
[8] = system: EKVX NSCLC
[9] = system: HCC-2998 colon
[10] = system: HCT-116 colon
[11] = system: HCT-15 colon
[12] = system: HOP-62 NSCLC
[13] = system: HOP-92 NSCLC
[14] = system: HS 578T breast
[15] = system: IGROV1 ovarian
[16] = system: K-562 leukemia
[17] = system: KM12 colon
[18] = system: M14 melanoma
[19] = system: MCF7 breast
[20] = system: MDA-MB-231 breast
[21] = system: MDA-MB-435
[22] = system: MDA-N
[23] = system: MOLT-4 leukemia
[24] = system: NCI-H226 lung
[25] = system: NCI-H23 lung
[26] = system: NCI-H522 lung
[27] = system: NCI/ADR-RES ovarian
[28] = system: OVCAR-3 ovarian
[29] = system: OVCAR-5 ovarian
[30] = system: OVCAR-8 ovarian
[31] = system: PC-3 prostate
[32] = system: RPMI-8226 leukemia
[33] = system: RXF 393 renal
[34] = system: SF-268 CNS
[35] = system: SF-295 CNS
[36] = system: SF-539 CNS
[37] = system: SK-MEL-2 melanoma
[38] = system: SK-MEL-28 melanoma
[39] = system: SK-MEL-5 melanoma
[40] = system: SK-OV-3 ovarian
[41] = system: SN12C renal
[42] = system: SNB-19 CNS
[43] = system: SNB-75 CNS
[44] = system: SR leukemia
[45] = system: SW-620 colon
[46] = system: T-47D breast
[47] = system: TK-10 renal
[48] = system: U251 CNS
[49] = system: UACC-62 melanoma
[50] = system: UO-31 renal
[51] = system: A498 renal
[52] = system: CCRF-CEM leukemia
[53] = system: LOX IMVI melanoma
[54] = system: MALME-3M melanoma
[55] = system: NCI-H460 lung
[56] = system: OVCAR-4 ovarian
[57] = system: UACC-257 melanoma

COc1ccc(N=C2C(=Nc3ccc(OC)cc3)N(c3ccccc3[N+](=O)[O-])C(=S)N2c2ccc(OC)cc2)cc1
TGI [1]: > 100 µM
TGI [2]: > 100 µM
TGI [3]: > 100 µM
TGI [4]: > 100 µM
TGI [5]: > 100 µM
TGI [6]: 30.8 µM
TGI [7]: > 100 µM
TGI [8]: > 100 µM
TGI [9]: > 100 µM
TGI [10]: > 100 µM
TGI [11]: > 100 µM
TGI [12]: > 100 µM
TGI [13]: > 100 µM
TGI [14]: > 100 µM
TGI [15]: > 100 µM
TGI [16]: > 100 µM
TGI [17]: > 100 µM
TGI [18]: > 100 µM
TGI [19]: > 100 µM
TGI [20]: 90.9 µM
TGI [21]: > 100 µM
TGI [22]: > 100 µM
TGI [23]: > 100 µM
TGI [24]: > 100 µM
TGI [25]: > 100 µM
TGI [26]: > 100 µM
TGI [27]: > 100 µM
TGI [28]: > 100 µM
TGI [29]: > 100 µM
TGI [30]: > 100 µM
TGI [31]: > 100 µM
TGI [32]: > 100 µM
TGI [33]: > 100 µM
TGI [34]: > 100 µM
TGI [35]: > 100 µM
TGI [36]: > 100 µM
TGI [37]: > 100 µM
TGI [38]: > 100 µM
TGI [39]: > 100 µM
TGI [40]: > 100 µM
TGI [41]: > 100 µM
TGI [42]: > 100 µM
TGI [43]: > 100 µM
TGI [44]: > 100 µM
TGI [45]: > 100 µM
TGI [46]: > 100 µM
TGI [47]: > 100 µM
TGI [48]: > 100 µM
TGI [49]: > 100 µM
TGI [50]: > 100 µM

CC(C)=CCC/C(C)=C/CC/C(C)=C/CC/C(C=O)=C/CC/C(C)=C\CC/C(C)=C/CC/C(C)=C/CC/C(C)=C/CC1=CC(=O)C=CC1=O
TGI [1]: > 100 µM
TGI [51]: > 100 µM
TGI [2]: > 100 µM
TGI [3]: > 100 µM
TGI [4]: > 100 µM
TGI [5]: 74.3 µM
TGI [52]: > 100 µM
TGI [6]: > 100 µM
TGI [7]: > 100 µM
TGI [8]: > 100 µM
TGI [9]: > 100 µM
TGI [10]: > 100 µM
TGI [11]: > 100 µM
TGI [12]: > 100 µM
TGI [13]: > 100 µM
TGI [14]: > 100 µM
TGI [15]: > 100 µM
TGI [16]: > 100 µM
TGI [17]: > 100 µM
TGI [53]: > 100 µM
TGI [18]: > 100 µM
TGI [54]: 66.3 µM
TGI [19]: > 100 µM
TGI [20]: > 100 µM
TGI [21]: > 100 µM
TGI [22]: > 100 µM
TGI [23]: > 100 µM
TGI [25]: > 100 µM
TGI [55]: > 100 µM
TGI [26]: 32.3 µM
TGI [27]: > 100 µM
TGI [28]: > 100 µM
TGI [56]: > 100 µM
TGI [29]: > 100 µM
TGI [30]: > 100 µM
TGI [31]: > 100 µM
TGI [32]: > 100 µM
TGI [34]: > 100 µM
TGI [35]: > 100 µM
TGI [37]: > 100 µM
TGI [38]: > 100 µM
TGI [39]: > 100 µM
TGI [40]: > 100 µM
TGI [41]: > 100 µM
TGI [42]: > 100 µM
TGI [43]: 96.1 µM
TGI [44]: > 100 µM
TGI [45]: > 100 µM
TGI [46]: 69.4 µM
TGI [47]: > 100 µM
TGI [48]: > 100 µM
TGI [57]: > 100 µM
TGI [49]: 53.1 µM
TGI [50]: > 100 µM
